Data taken from patent publication US10954240B2, “Compounds inhibiting leucine-rich repeat kinase enzyme activity” (Merck Sharp & Dohme Corp., priority 2014, dated 2021).

biological target: LRRK2 (G2019S mutation, GST-LRRK2 (amino acids 970-2527)) (Homo sapiens (Human), UniProt Q5S007, G2019S); assay: LRRK2 Km ATP LanthaScreen Assay; format: biochemical; details: mean IC50 of several test results
From the text: Unless otherwise noted, all LRRK2 IC50 data presented in tables refers to the LRRK2 Km ATP LanthaScreen™ Assay that is described in the Biological Assay section.
The data presented for the Km ATP LanthaScreen™ Assay represents mean IC50 values based on several test results and may have reasonable deviations depending on the specific conditions and reagents used. Reagents for the LRRK2 Km ATP LanthaScreen™ Assay were purchased from Life Technologies Corporation.
LRRK2 Km ATP LanthaScreen™ Assay
a) 400 nl of a 1:2.15 serial dilution of test compound (98 μM top assay concentration) is spotted via Labcyte Echo to certain wells in a 384 well black, untreated plate. Control wells contain 400 nl of either DMSO or 400 nl of a known inhibitor in DMSO.
c) A 30 minute room temperature incubation is followed by addition of 10 μl of 800 nM fluorescein labeled LRRKtide peptide substrate and 186 μM ATP solution in 1× assay buffer to all wells.
d) After a 60 minute room temperature incubation, 20 μl of TR-FRET Dilution Buffer (Invitrogen PV3756B) containing 4 nM Tb-labeled anti-phospho LRRKtide antibody and 20 mM EDTA is added to all wells.
e) Plates are incubated at room temperature for 1 hour and read on an Envision™ multi-mode plate reader with LanthaScreen™ settings. Results are analysed using Assay Data Analyzer.

Chain of LRRK2 (G2019S mutation, GST-LRRK2 (amino acids 970-2527)) (Q5S007 970-2527 G2019S): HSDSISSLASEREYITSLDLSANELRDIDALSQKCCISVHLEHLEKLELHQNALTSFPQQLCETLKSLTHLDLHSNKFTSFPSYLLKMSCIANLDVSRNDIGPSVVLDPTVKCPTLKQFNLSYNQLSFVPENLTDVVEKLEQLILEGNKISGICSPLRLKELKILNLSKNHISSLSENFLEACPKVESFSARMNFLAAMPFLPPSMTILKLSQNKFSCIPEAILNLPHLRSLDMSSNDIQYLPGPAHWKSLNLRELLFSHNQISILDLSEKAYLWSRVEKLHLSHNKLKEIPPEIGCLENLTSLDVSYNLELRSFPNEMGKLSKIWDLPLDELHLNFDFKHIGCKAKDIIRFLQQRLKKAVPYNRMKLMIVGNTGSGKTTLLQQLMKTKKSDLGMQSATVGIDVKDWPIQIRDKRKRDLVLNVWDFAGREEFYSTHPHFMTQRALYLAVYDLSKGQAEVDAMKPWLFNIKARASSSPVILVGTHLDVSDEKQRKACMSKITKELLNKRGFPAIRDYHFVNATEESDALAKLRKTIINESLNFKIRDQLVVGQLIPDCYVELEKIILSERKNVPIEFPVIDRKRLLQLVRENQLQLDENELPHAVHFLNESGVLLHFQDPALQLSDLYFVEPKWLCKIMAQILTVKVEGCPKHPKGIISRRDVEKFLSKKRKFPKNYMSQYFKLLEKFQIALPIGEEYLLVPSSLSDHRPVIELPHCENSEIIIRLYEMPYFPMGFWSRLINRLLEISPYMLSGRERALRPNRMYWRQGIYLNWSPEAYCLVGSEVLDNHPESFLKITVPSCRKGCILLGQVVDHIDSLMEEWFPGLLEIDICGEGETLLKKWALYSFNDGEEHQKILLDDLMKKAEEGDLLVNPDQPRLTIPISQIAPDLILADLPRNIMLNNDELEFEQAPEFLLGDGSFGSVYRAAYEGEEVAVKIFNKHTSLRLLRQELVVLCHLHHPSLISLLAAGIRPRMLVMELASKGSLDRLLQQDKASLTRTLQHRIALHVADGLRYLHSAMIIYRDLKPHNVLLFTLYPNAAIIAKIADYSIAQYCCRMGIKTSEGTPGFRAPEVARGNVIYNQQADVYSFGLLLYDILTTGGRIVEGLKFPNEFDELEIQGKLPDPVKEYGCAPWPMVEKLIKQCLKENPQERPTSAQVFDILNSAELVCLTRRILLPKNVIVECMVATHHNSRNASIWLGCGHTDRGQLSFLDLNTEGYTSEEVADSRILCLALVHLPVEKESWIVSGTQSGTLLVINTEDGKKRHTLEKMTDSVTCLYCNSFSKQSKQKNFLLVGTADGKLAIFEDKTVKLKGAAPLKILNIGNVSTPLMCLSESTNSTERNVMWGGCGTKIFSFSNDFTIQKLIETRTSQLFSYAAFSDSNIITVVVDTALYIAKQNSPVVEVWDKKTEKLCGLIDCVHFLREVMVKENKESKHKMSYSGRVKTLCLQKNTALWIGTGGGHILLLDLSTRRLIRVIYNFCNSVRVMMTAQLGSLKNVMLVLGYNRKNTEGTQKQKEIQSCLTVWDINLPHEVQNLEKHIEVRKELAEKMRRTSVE

Compound | IC50 [µM]
CC(C)Oc1ccc2cnn(-c3ccnc(N4CC[C@H](F)C4)c3)c2c1 [Example 43, (S)-1-(2-(3-fluoropyrrolidin-1-yl)pyridin-4-yl)-6-isopropoxy-1H-indazole] | 0.95
Cn1cc(-c2ccc3cnn(-c4ccnc(N5CCC(O)CC5)c4)c3c2)cn1 [Example 44, 1-(4-(6-(1-methyl-1H-pyrazol-4-yl)-1H-indazol-1-yl)pyridin-2-yl)piperidin-4-ol] | 0.1
Cn1cc(-c2ccc3cnn(-c4ccnc(N5CCCCC5)c4)c3c2)cn1 [Example 45, 6-(1-methyl-1H-pyrazol-4-yl)-1-(2-(pipendin-1-yl)pyridin-4-yl)-1H-indazole] | 0.141
Cn1cc(-c2ccc3cnn(-c4ccnc(N5CCCC5)c4)c3c2)cn1 [Example 46, 6-(1-methyl-1H-pyrazol-4-yl)-1-(2-(pyrrolidin-1-yl)pyridin-4-yl)-1H-indazole] | 0.074
CO[C@H]1CN(c2cc(-n3ncc4ccc(-c5cnn(C)c5)cc43)ccn2)C[C@@H]1O [Example 48, (3S,4S)-4-methoxy-1-(4-(6-(1-methyl-1H-pyrazol-4-yl)-1H-indazol-1-yl)pyridin-2-yl)pyrrolidin-3-ol] | 0.399
C[C@@H]1CN(c2cc(-n3ncc4ccc(-c5cnn(C)c5)cc43)ccn2)CCO1 [Example 49, (R)-2-methyl-4-(4-(6-(1-methyl-1H-pyrazol-4-yl)-1H-indazol-1-yl)pyridin-2-yl)morpholine] | 0.089
C[C@H]1CN(c2cc(-n3ncc4ccc(-c5cnn(C)c5)cc43)ccn2)CCO1 [Example 50, (S)-2-methyl-4-(4-(6-(1-methyl-1H-pyrazol-4-yl)-1H-indazol-1-yl)pyridin-2-yl)morpholine] | 0.141
CCc1nnc2n1CCN(c1cc(-n3ncc4ccc(-c5cnn(C)c5)cc43)ccn1)C2 [Example 51, 3-ethyl-7-(4-(6-(1-methyl-1H-pyrazol-4-yl)-1H-indazol-1-yl)pyridin-2-yl)-5,6,7,8-tetrahydro-[1,2,4]triazolo[4,3-a]pyrazine] | 0.217
Cn1cc(-c2ccc3cnn(-c4ccnc(N5CCn6ccnc6C5)c4)c3c2)cn1 [Example 52, 7-(4-(6-(1-methyl-1H-pyrazol-4-yl)-1H-indazol-1-yl)pyridin-2-yl)-5,6,7,8-tetrahydroimidazo[1,2-a]pyrazine] | 0.189
Cn1cc(-c2ccc3cnn(-c4ccnc(N5CCC(C)(O)C5)c4)c3c2)cn1 (stereo not drawn) [Example 53, 3-methyl-1-(4-(6-(1-methyl-1H-pyrazol-4-yl)-1H-indazol-1-yl)pyridin-2-yl)pyrrolidin-3-ol] | 0.131
Cn1cc(-c2ccc3cnn(-c4ccnc(N5CCN(c6ccncn6)CC5)c4)c3c2)cn1 [Example 54, 6-(1-methyl-1H-pyrazol-4-yl)-1-(2-(4-(pyrimidin-4-yl)piperazin-1-yl)pyridin-4-yl)-1H-indazole] | 0.097
Cn1cc(-c2ccc3cnn(-c4ccnc(N5CCN(CCO)CC5)c4)c3c2)cn1 [Example 55, 2-(4-(4-(6-(1-methyl-1H-pyrazol-4-yl)-1H-indazol-1-yl)pyridin-2-yl)piperazin-1-yl)ethanol] | 0.07
CS(=O)(=O)N1CCN(c2cc(-n3ncc4ccc(-c5cccnc5)cc43)ncn2)CC1 [Example 62, 1-{6-[4-(methylsulfonyl)piperazin-1-yl]pyrimidin-4-yl}-6-pyridin-3-yl-1H-indazole] | 0.486
Cn1cc(-c2ccc3cnn(-c4cc(N5CCN(S(C)(=O)=O)CC5)ncn4)c3c2)cn1 [Example 63, 6-(1-methyl-1H-pyrazol-4-yl)-1-{6-[4-(methylsulfonyl)piperazin-1-yl]pyrimidin-4-yl}-1H-indazole] | 0.317
CS(=O)(=O)N1CCN(c2cc(-n3ncc4ccc(-c5ccn[nH]5)cc43)ncn2)CC1 [Example 64, 1-{6-[4-(methylsulfonyl)piperazin-1-yl]pyrimidin-4-yl}-6-(1H-pyrazol-5-yl)-1H-indazole] | 0.018
